Data published in patent US12448388B2, “PRMT5 inhibitors and uses thereof” (Gilead Sciences, Inc., priority 2023, dated 2025).
≈ marks a conversion by molar mass, not a printed value. Like-named read-outs stand apart in the source and are kept apart here.

Legend:
[1] = tested on: HCT116 MTAP-deleted cell lines; assay: Cell viability assay (CellTiter-Glo, 7 days), HCT116 MTAP-deleted; type: cell-based; settings: for Selectivity: HCT116 WT CC50 versus HCT116 MTAP^del CC50; for plasma-adjusted CC50 (paCC50): paCC50 = CC50-HCT116-MTAP^del * (% free CCM/% free human plasma); for CC50: Homo sapiens, HCT116 MTAP-deleted
In short: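 Dose-response, PRMT5 inhibitors from DMSO serial dilution, pre-spotted; cells seeded onto compound plates. 7 d, 37 °C/5% CO2/90% RH. Readout: CTG luminescence → CC50.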

[2] = Cell viability assay (CellTiter-Glo, 7 days), HCT116 WT; type: cell-based; settings: human, HCT116 WT cells, 7 days of treatment, CTG
Experimental: Control compounds were analyzed in parallel each time for quality control. In Brief, on Day -1, a serial dilution of stock compounds in DMSO was performed using BioMek liquid handlers and dispensed using Echo acoustic dispenser into 384 well plates. Both tool compounds and sample compounds were spotted in the same plate for a dose response of PRMT5 inhibitors. Compound plates were stored as frozen until the cells were ready for seeding. […] After equilibrating the plate in room temperature, the cells were incubated for 7 days inside the sealed incubator set at 37° C. with 90% humidity and 5% CO2. On Day 7, the viability of cells was measured using a CTG assay kit (CellTitre-Glo;Promega cat no. G7573). Shortly, 40 μl per well of luminescent cell viability assay reagent were dispensed using EL460 liquid dispenser 5 μl cassette. CTG luminescence signal was measured using an EnVision plate reader (PerkinElmer) in accordance with manufacturer's instruction. […] Selectivity with * is artificially high due to limited solubility of the compound hampering accurate measurement of WT CC50.

[3] = MDR1/BCRP assay: permeability in cPgp-KO-MDCK-WT cells; type: in vitro ADME; settings: dog, pH 7.4
Experimental: The cells were maintained in an incubator at 37° C., 90% humidity, and 5% CO2 until reaching confluence over 5 days in 96-well transwell plates. Experiments were conducted using an HBSS donor buffer (Invitrogen) containing 10 mM HEPES and 15 mM glucose, adjusted to pH 7.4. The receiver well contained HBSS buffer supplemented with 1% BSA, 10 mM HEPES, and 15 mM glucose, and the pH was adjusted to 7.4. TEER values were measured to assess membrane integrity after an initial equilibration with BSA-free transport buffer for 15 minutes. The experiment was started by adding dosing solutions containing test compounds at 1 μM. Cells were dosed on the apical (A) side or basolateral (B) side at 100 μl and 200 μl, respectively, to determine forward (A to B) and reverse (B to A) permeability. At the 2-hour time point, 50 μl samples were collected from the receiver compartment. Each compound was tested in 2 separate replicate wells for each condition. All samples were immediately collected into plates, and 50 μL of acetonitrile was added. Subsequently, 350 μl of 30:70 methanol: acetonitrile containing internal standard was added to precipitate proteins and stabilize the test compounds. To test for non-specific binding and compound instability, the total amount of the drug was quantified at the end of the experiment and compared to the material present in the original dosing solution as a percentage of the recovery. All samples were analyzed by LC-MS/MS using electrospray ionization.
The apparent permeability, Papp, and % recovery were calculated as follows: […]

[4] = PBS solubility (kinetic solubility from DMSO stocks); type: physicochemical; settings: 22 °C, aqueous buffer, kinetic from dmso stock; 1x PBS pH 7.4, 1.0% DMSO, 24-hour incubation at ambient temperature
Experimental: Buffer Preparation: 1×PBS, 7.4: Phosphate Buffered Saline solution 10×, PBS (Fisher Bioreagent, part number BP399-500) 50 mL was added to approximately 450 mL HPLC grade H2O. The volume of the solution was then adjusted to 500 mL for a total dilution factor of 1:10 and a final PBS concentration of 1×. The pH of the final solution was measured and found to be 7.4.
The final DMSO Concentration is 1.0% and maximum theoretical compound concentration is 100 μM (assuming stock concentration of 10 mM). The filter plate was sealed. Following 24-hour incubation at ambient temperature (20.8-24.0° C.), the samples were vacuum filtered, and the filtrates were collected in a 96 well polypropylene plate for analysis. The collection plate was sealed for analysis. Filtrates were injected into the nitrogen detector for quantification on Analiza's Automated Discovery Workstation. The results are reported here in both μM and μg/mL.
Calculation of Results: The equimolar nitrogen response of the detector is calibrated using standards which span the dynamic range of the instrument from 0.08 to 4500 μg/ml nitrogen. The filtrates were quantified with respect to this calibration curve. The calculated solubility values are corrected for background nitrogen present in the DMSO, and the media used to prepare the samples. All reported values for compounds containing adjacent nitrogen atoms in a ring structure should be increased by ˜25%. […] The solubility results presented assume that the samples were free of nitrogen containing impurities and are stable under the assay conditions.

[5] = Hepatocyte stability assay, human; type: in vitro ADME; settings: human hepatocytes, 1 μM
Experimental: BioreclamationIVT (Baltimore, MD) provided the cryopreserved hepatocytes, hepatocyte thawing (HT) medium, and Krebs-Henseleit buffer (KHB) medium. The stock solution concentration was 1 M in DMSO and was then diluted further in acetonitrile/water (1:1 v/v). All other chemicals were purchased from Sigma-Aldrich (St. Louis, MO) or Thermo Fisher Scientific (Waltham, MA).
The quench solution used to stop reactions in the hepatocyte incubations was comprised of 100% (v/v) acetonitrile. Internal Standard/Quench (IS/Q) solution used to stop reactions with the positive control also contained 200 nM Labetalol.
Metabolic Stability in Cryopreserved Hepatocytes: Test compounds, or the positive control metabolic substrate, was incubated in suspensions of cryopreserved hepatocytes at a final concentration of 1 μM. Vials containing cryopreserved hepatocytes were removed from liquid nitrogen and immediately immersed in a 37° C. water bath. The vials were swirled gently until the contents had thawed. They were then immediately emptied into 48 mL of pre-warmed thawing medium in a 50 mL conical tube. Cells remaining in the vial were re-suspended with 1.0 mL of pre-warmed thawing medium and added to the conical tube. The tube was capped and then gently inverted several times to re-suspend the hepatocytes. The cell suspension was centrifuged at 500×g for 10 minutes at room temperature and the supernatant discarded. The cell pellet was loosened by gently swirling the centrifuge tube. Non-supplemented KHB medium was added to obtain the appropriate target cell density. The viabilities of all cell preparations were ≥85%, assessed by Trypan blue dye exclusion.
For incubations, aliquots of hepatocyte suspension (250 μL containing a cell concentration of 2×10^6 cells/mL) were added to 250 μL of 2 μM substrate (test compound or positive control) in supplemented KHB in duplicate wells in a 24-well plate. Final concentration in the incubations were 1×10^6 cells/mL and 1 μM substrate. A cell-free control incubation (KHB only) was also included. The incubations were carried out with gentle shaking in a 37° C. incubator under a humid atmosphere of 95% air/5% CO2 (v/v). Aliquots (100 μL) were removed after 0, 1, 3, and 6 hours and added to 200 μL quenching solution. The samples were then placed on a shaker for 10 min followed by centrifugation at 3000×g for 20 min. The supernatant was transferred to a new plate and diluted with 100 μL of water to reduce the organic content and then placed on a shaker for 10 mins. Samples were injected and analyzed with methods described below.
Liquid Chromatography: Quantification of positive control and test compound was performed by analyte/internal standard peak area ratios (PAR) measured on a Thermo Scientific™ Q Exactive™ Hybrid Quadrupole-Orbitrap Mass Spectrometer MS/MS with an electrospray interface operating in positive ion mode. The mass spectrometer was coupled to a Dionex Ultimate® 3000 HPLC system. Samples (10 μL aliquots) were injected with a Leap Technologies HTC PAL autosampler. For positive control, the column used was a Thermo Scientific™ Hypersil GOLD™ HPLC column ([…], 50×2.1 mm). Mobile phase A consisted of 95% (v/v) water, 5% (v/v) acetonitrile, and contained 0.1% (v/v) formic acid (FA). Mobile phase B consisted of 95% (v/v) acetonitrile, 5% (v/v) water, and contained 0.1% (v/v) FA. Elution was achieved, at a flow rate of 0.5 mL/min, by a series of linear gradients: initial condition was 5% B at 0 min, isocratic for 20 seconds; then linear gradient to 95% B over 90 seconds, followed by isocratic for 60 seconds at 95% B, and re-equilibrated to initial conditions over 70 seconds.
Metabolic stabilities of positive control and test compound were determined by measuring the rates of disappearance of the parent with time by determining the % of parent remaining at time t (Ct) {Obach 1997}.
Data (% of parent remaining) were plotted on a semi-log scale and fitted using an exponential fit: […]

[6] = HCT-116, 168 h, 7 days of treatment, CTG, read-out: CC50-HCT116-MTAP^del
[7] = HCT-116, cell viability, class symbols, read-out: CC50

Compound | Selectivity [1] | plasma-adjusted CC50 (paCC50) ([1]; HCT-116) | CC50 [1, 6] | CC50 [1, 7] | CC50 at 7 days [2] | Papp A→B at 2 h, 1 µM [3] | solubility at 24 h [4] | Human Predicted Hepatocyte CL [5]
Nc1nc2cc(F)c(C(=O)N3CC[C@H]4C[C@@H]3c3ccc(C(F)(F)F)nc3O4)cc2n2cncc12 [Ff-366, (4-amino-7-fluoroimidazo[1,5-a]quinoxalin-8-yl)((2S,6R)-9-(trifluoromethyl)-3,4-dihydro-2H-2,6-methanopyrido[2,3-b][1,5]oxazocin-5(6H)-yl)methanone] | 75 | 0.206 µM | 0.029 µM | < 0.1 µM | 2.17 µM | 90 nm/s | 25.2 µM (≈ 11.9 µg/mL) | 0.05 L/h/kg
Cc1ncc2c(N)nc3cnc(C(=O)N4CC[C@H]5C[C@@H]4c4cc(F)c(C(F)(F)F)cc4O5)cc3n12 [Ff-696, (4-amino-1-methylimidazo[1,5-a]pyrido[3,4-e]pyrazin-8-yl)((2S,6R)-8-fluoro-9-(trifluoromethyl)-3,4-dihydro-2H-2,6-methanobenzo[b][1,5]oxazocin-5(6H)-yl)methanone] | 83 | 0.198 µM | 0.017 µM |  | 1.41 µM | 210 nm/s | 2.9 µM (≈ 1.41 µg/mL) | 0.27 L/h/kg
Cc1ncc2c(N)nc3cnc(C(=O)N4CCC[C@@H]5Oc6cc(C(F)(F)F)ccc6[C@@H]54)cc3n12 [Ff-344, (4-amino-1-methylimidazo[1,5-a]pyrido[3,4-e]pyrazin-8-yl)((4aS,9bS)-7-(trifluoromethyl)-3,4,4a,9b-tetrahydrobenzofuro[3,2-b]pyridin-1(2H)-yl)methanone] | 85 | 0.476 µM | 0.027 µM | < 0.1 µM | 2.3 µM | 147 nm/s | < 1 µM | 0.07 L/h/kg
Nc1nc2cc(F)c(C(=O)N3CCC[C@@H]4Oc5cc(C(F)(F)F)ncc5[C@@H]43)cc2n2cncc12 [Ff-117, (4-amino-7-fluoroimidazo[1,5-a]quinoxalin-8-yl)((4aS,9bS)-7-(trifluoromethyl)-3,4,4a,9b-tetrahydrofuro[3,2-b:4,5-c′]dipyridin-1(2H)-yl)methanone] | 69 | 0.269 µM | 0.018 µM | < 0.1 µM | 1.25 µM | 113 nm/s | 54.7 µM (≈ 25.8 µg/mL) | 0.05 L/h/kg
Nc1nc2ccc(C(=O)N3CCC[C@@H]4Oc5cc(OC(F)(F)F)cc(F)c5[C@@H]43)cc2n2cncc12 [Ff-697, (4-aminoimidazo[1,5-a]quinoxalin-8-yl)((4aS,9bS)-9-fluoro-7-(trifluoromethoxy)-3,4,4a,9b-tetrahydrobenzofuro[3,2-b]pyridin-1(2H)-yl)methanone] | 199 | 0.289 µM | 0.025 µM |  | 4.99 µM |  | 2.5 µM (≈ 1.22 µg/mL) | 0.4 L/h/kg
Nc1nc2ccc(C(=O)N3CCC[C@@H]4Oc5cc(C(F)(F)F)cc(F)c5[C@@H]43)cc2n2cncc12 [Ff-693, (4-aminoimidazo[1,5-a]quinoxalin-8-yl)((4aS,9bS)-9-fluoro-7-(trifluoromethyl)-3,4,4a,9b-tetrahydrobenzofuro[3,2-b]pyridin-1(2H)-yl)methanone] | 125 | 0.247 µM | 0.015 µM |  | 1.88 µM | 126 nm/s |  | 0.31 L/h/kg
Cc1ncc2c(N)nc3cnc(C(=O)N4CCC[C@@H]5Oc6cc(OC(F)(F)F)cc(F)c6[C@@H]54)cc3n12 [Fg-66, (4-amino-1-methylimidazo[1,5-a]pyrido[3,4-e]pyrazin-8-yl)((4aS,9bS)-9-fluoro-7-(trifluoromethoxy)-3,4,4a,9b-tetrahydrobenzofuro[3,2-b]867yridine-1(2H)-yl)methanone] | 116 | 0.788 µM | 0.072 µM |  | 8.37 µM | 193 nm/s | < 1 µM | 0.28 L/h/kg
